“Also recorded” adds a separate entry of the source.
Key:
[1] = system: Meerschweinchen, die ein Antigen induziertes Asthma besitzen; test: antigen (ovalbumin)-induced asthma in conscious, spontaneously breathing guinea pigs; lung function (sGaw) by body plethysmograph; type: in vivo, Hartley Meerschweinchen; details: for Bereiche der Unterdrückung der unmittelbaren asthmatischen Reaktionen: comparison of Ebselen group (5 mg/kg i.p.) with Dexamethason group (1 mg/kg i.p., 4 days)
Description: Die Wirksamkeiten von Ebselen wurden unter Verwendung von Meerschweinchen, die ein Antigen induziertes Asthma besitzen, durch Überprüfung der Lungenfunktionen unter Bewußtsein und spontaner Atmung getestet.
Jedes der weiblichen Hartley Meerschweinchen (SLC) (4 Wochen alt, Körpergewicht etwa 250 bis 300 g) wurden vorbehandelt mit Cyclophosmid (2 mg/kg). Nach zwei Tagen wurden intraperitoneal Ovalbumin (OA, 1 mg) und Aluminiumgel (1 g) injiziert. Drei Wochen später wurden wiederum OA (0,1 mg) und Aluminiumgel (1 g) intraperitoneal injiziert. Die so behandelten Meerschweinchen wurden als sensibilisierte Tiere benutzt. Zu diesem Testzeitpunkt waren die Meerschweinchen elf Wochen alt und hatten ein Körpergewicht von 450 bis 580 g.
Körper-Pressmograph, Drucktyp • Pulmotacograph (TP-601G, Nippon Kodensha) • Differentialmeßwandler (T-601, Nippon Kodensha) • Gasflußwiderstandsrohr (Lilly type, Nippon Kodensha) • Oszilloskop (DS-9121, Iwasaki Tsushinki) • Computer (Macintosh Centris 660 AV, Apple) • Software (zur Analyse der Atmung basierend auf LabView für Macintosh 3.01) • Zerstäuber (NE-U10, Tateishi Denki)
Dexamethason (1 mg/kg) wurde in 100 % DMSO (1 ml) gelöst. Diese Lösung wurde während vier aufeinander folgende Tage intraperitoneal injiziert. Die letzte intraperitoneale Injektion wurde 24 Stunden vor der Induzierung der Antigene durchgeführt.
Gruppe der mit Ebselen vorbehandelten Meerschweinchen Ebselen (5 mg/kg) wurde in 100 % DMSO (1 ml) gelöst. Diese Lösung wurde intraperitoneal 30 Minuten vor der Induzierung der Antigene injiziert.
100 % DMSO (1 ml) wurde intraperitoneal 30 Minuten vor der Induzierung der Antigene injiziert.
OA (40 mg) wurde in einer physiologischen Salzlösung (4 mg/ml) gelöst. Diese Lösung wurde 2 Minuten lang unter Verwendung eines Ultraschallzerstäubers inhaliert.
In Übereinstimmung mit dem Verfahren von Agrawal (Agrawal, K. P.; Specific Airway Conductance in Guinea Pigs: "Normal Values and Histamine Induced Fall", Respiratory Physiology 43:23, 1981) wurde jedes Meerschweinchen auf einem Körper-Pressmograph, Drucktyp, fixiert und die prozentuale Variation des spezifischen Luftweg-Leitwertes (sGaw) wurde gemessen. Der Luftfluß durch die Nase und die Änderung des Innendruckes der Box wurden aufgezeichnet. Die entsprechenden Wellenformen' wurden digital bei 1.024 Hz gesammelt und die Punkte vom Ende des Ausatmens bis zum Beginn des Einatmens wurden als rückläufige Linie aufgezeichnet. Unter Verwendung der Neigung (tan) der rückläufigen Linie wurde der sGaw erhalten. Der sGaw-Wert wurde vor der Induzierung der Antigene gemessen. Nachdem eine physiologische Salzlösung für zwei Minuten inhaliert wurde, wurde der sGaw nochmals gemessen, um sicherzustellen, daß sich keine Daten geändert hatten. […]

Lipoxygenase = details: Peter Kuhl et al, Prostaglandins, 31 (1986), 1029-1048; cited from earlier work
[2] = acute toxicity test (LD50) in mice; details: mouse, in vivo, Maus
From the text: (§1) Darüber hinaus konnte gefunden werden, daß Ebselen sehr sicher ist, wie dies durch die nachfolgenden und in der Tabelle 1 wiedergegebenen LD50-Werte bewiesen wird, wobei diese Werte das Ergebnis eines Toxizitätstests unter Verwendung von Mäusen und Ratten, denen diese Verbindungen oral oder intraperitoneal verabreicht wurden, darstellen. Selbst dann, wenn diese Verbindungen in hohen Dosen verabreicht werden, zeigen sie keine Nebeneffekte, die ernsthafte Probleme verursachen. Tabelle 1

[3] = acute toxicity test (LD50) in rats; details: rat, in vivo, Ratte
From the text: as §1

SMILES | Bereiche der Unterdrückung der unmittelbaren asthmatischen Reaktionen [1] | Lipoxygenase inhibierende Wirkung (Lipoxygenase) | LD50 ([2]; ip) [mg/kg] | LD50 ([2]; po) [mg/kg] | Unterdrückung der unmittelbaren asthmatischen Reaktionen (sGaw) ([1]; Ebselen 5 mg/kg i.p. 30 min before antigen challenge, compared with control group (DMSO)) | Unterdrückung der späten asthmatischen Reaktionen (sGaw) ([1]; Ebselen 5 mg/kg i.p. 30 min before antigen challenge, compared with control group (late reactions at 180 to 420 min in controls)) | LD50 ([3]; ip) [mg/kg] | LD50 ([3]; po) [mg/kg]
C[C@@H]1C[C@H]2[C@@H]3CCC4=CC(=O)C=C[C@]4(C)[C@@]3(F)[C@@H](O)C[C@]2(C)[C@@]1(O)C(=O)CO [Dexamethason, reference compound] | überwiegend gleich |  |  |  |  |  |  | 
O=c1c2ccccc2[se]n1-c1ccccc1 [Ebselen, 2-Phenyl-1,2-Benzoisoselenazole-3(2H)-one] | überwiegend gleich | deutliche Lipoxygenase inhibierende Wirkung | 740 | > 6810 | wirkungsvoller unterdrückt | wirkungsvoller unterdrückt; also recorded: erheblich und vollständig unterdrückt | 580 | > 6810

— EP0876144B1, “THERAPEUTIC ANTI-ASTHMA AGENTS CONTAINING EBSELEN” (A. Nattermann & Cie. GmbH, priority 1996, dated 1997)
